Test system: SH-SY5Y nerve cells
Test: Protective effect against MPP+ induced SH-SY5Y nerve cell injury (MTT cell viability)
Assay type: cell-based
Conditions: 500 μM MPP+; for protective effect against MPP+ induced SH-SY5Y nerve cell injury: 24 h pre-protection + 24 h co-incubation, MTT, overall statement
Procedure: SH-SY5Y nerve cells were purchased from ATTC (American Type Culture Collection, Rockville, Md., U.S.A). The cells was cultured with RPMI1640 medium (a product of Hyclone Company) containing 10% fetal bovine serum, 2 mM/L glutamine, as well as 1% penicillium and streptomycin doubleantibiotics, in the incubator at 37° C. and 5% CO2.
The extract tested was the beautyberry total glycosides extract prepared in Example 5 which contained 37.75 wt % verbascoside and 28.01 wt % Arenarioside. The beautyberry total glycosides extract prepared in Example 5, and stock solutions of verbascoside and Arenarioside prepared in 2.1 above were dissolved and formulated respectively with phosphate buffer (PBS) and the resulted solutions were diluted to test concentrations with RPMI 1640 culture medium. MPP+ solution was prepared by dissolving MPP+ to 1 mM with PBS. The test concentration of MPP+ was 500 μM diluted with the culture medium. MTT was formulated with PBS, at a concentration of 0.5 mg/ml, and was filtered to remove bacteria using a 0.22 μm filter membrane prior to use.
SH-SY5Y nerve cells at a logarithmic growth phase were collected and counted with a cell counter. 200 μl of cell suspension with 4×10^4/ml was added into each well of the 96-well plate (converted to 8×10^3/200 μl of the culture medium) and was subjected to adherent culture in the incubator at 37° C. and 5% CO2 for 24 hours. The experiment included 11 groups: (1) a blank control group, wherein RPMI 1640 culture medium was used, and incubation at 5% CO2 and 37° C. was performed for 24 h; (2) a model group, wherein RPMI 1640 culture medium containing 500 μM MPP+ was used, and incubation at 5% CO2 and 37° C. was performed for 24 h; (3) a high dose group (16 μg/mL), a medium dose group (1.6 μg/mL), and a low dose group (0.16 μg/mL) (equivalent to 10 μM, 1 μM, and 0.1 μM verbascoside, respectively) of tests of the extract of Example 5 in the present invention; (4) a high dose group (10 μM), amedium dose group (1 μM), and a low dose group (0.1 μM) of theverbascoside monomer prepared above; and (5) a high dose group (10 μM), a medium dose group (1 μM), and a low dose group (0.1 μM) of the Arenarioside monomer prepared above; wherein, in each experimental dosage groups of (3), (4), and (5), mother liquid of the drug to be tested was firstly diluted to a set dosage concentration with the RPMI 1640 culture medium, then added at 100 μL into the cells, which were pre-protected at 5% CO2 and 37° C. for 24 h, then supernatant was carefully pipetted and discarded, then, mother liquid of the drug to be tested was diluted to a set dosage concentration with the RPMI 1640 culture medium containing 500 μM MPP+ that was formulated beforehand, then added at 100 μL into the cells, which were proceeded to incubation at 5% CO2 and 37° C. for 24 h. Supernatant was carefully pipetted and discarded, placed upside-down on an absorbent paper and patted dry. After the blank group and themodel group were incubated for 24 h, operations were performed using the same method. 5 parallel wells were provided for each group of the samples. MTT at a concentration of 0.5 mg/ml was added into each well of each group above, and incubated at 5% CO2 and 37° C. for 4 h. Supernatant was carefully pipetted and discarded, placed upside-down on an absorbent paper and patted dry. 200 μL of dimethyl sulfoxide (DMSO) was added into each well, and shaken for 300 s. The absorbance value of each well was determined at OD 570 nm, and cell viability was calculated according to the following formula: […]

Row | SMILES | cell viability compared with the model group (0.1 μM monomer) | cell viability compared with the model group (1 μM monomer) | protective effect against MPP+ induced SH-SY5Y nerve cell injury
1 | C[C@@H]1O[C@@H](O[C@@H]2[C@@H](O)[C@H](OCCc3ccc(O)c(O)c3)O[C@H](CO)[C@H]2OC(=O)/C=C/c2ccc(O)c(O)c2)[C@H](O)[C@H](O)[C@H]1O [verbascoside] | significant difference compared to the model group (p<0.01) | significant difference compared to the model group (p<0.01) | has a protective effect
2 | CC1O[C@@H](O[C@@H]2C(O)[C@H](OCCc3ccc(O)c(O)c3)OC(CO[C@@H]3OC[C@@H](O)[C@@H](O)C3O)[C@@H]2OC(=O)/C=C/c2ccc(O)c(O)c2)C(O)[C@@H](O)[C@H]1O (stereo partly drawn) [Arenarioside] | significant higher cell viability as compared with the model group (p<0.01) | significant higher cell viability as compared with the model group (p<0.01) | has a protective effect

— patent US10758585B2, “Beautyberry total glycosides extract and preparation method and use thereof” (Suzhou Neupharma Co., Ltd., priority 2012, dated 2020)
